In PMC5672791 (Journal of medicinal chemistry, 2015):
“Also recorded” adds a separate entry of the source. Where two headings read alike, the source gives them in different places. Blank lines part the entries; values can stand above or below the molecule they belong to. Where a SMILES comes first, the peptide text is derived from it. Bridges are numbered along the chain shown (N, C = ends). Where no end group is shown, it is not given here. [ ]: non-standard residue; d: D form. Bip = N[C@@H](Cc1ccc(-c2ccccc2)cc1)C(=O)O

Legend:
MC4R = details: cited from earlier work
mMC1R [1] = target: T1, mMC1R (Mus musculus, UniProt Q01727); assay: cAMP based β-galactosidase reporter assay, agonist activity at mMC1R; format: cell-based
T1 sequence (Q01727 whole entry): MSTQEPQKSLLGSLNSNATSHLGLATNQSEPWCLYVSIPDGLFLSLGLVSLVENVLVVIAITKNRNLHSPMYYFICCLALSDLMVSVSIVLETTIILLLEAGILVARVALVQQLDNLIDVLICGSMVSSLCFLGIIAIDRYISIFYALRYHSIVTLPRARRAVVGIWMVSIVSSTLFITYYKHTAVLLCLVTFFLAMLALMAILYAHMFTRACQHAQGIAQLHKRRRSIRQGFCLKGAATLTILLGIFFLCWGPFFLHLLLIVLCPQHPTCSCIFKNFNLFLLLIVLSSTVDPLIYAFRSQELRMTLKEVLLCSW

mMC4R [2] = target: T2, mMC4R (Mus musculus, UniProt P56450); format: cell-based
mMC1R [3] = target: T1, mMC1R; details: read-out: mMC1R Agonist EC50; previously reported values; cited from earlier work
mMC3R [4] = target: T3, mMC3R (Mus musculus, UniProt P33033); details: cited from earlier work
mMC4R [5] = target: T2, mMC4R; details: cited from earlier work; for Ki: read-out: mMC4R Ki, Ki=10^-pA2, previously reported values
mMC5R [6] = target: T4, mMC5R (Mus musculus, UniProt P41149); details: read-out: mMC5R Agonist EC50; previously reported values; cited from earlier work
T4 sequence (P41149 whole entry): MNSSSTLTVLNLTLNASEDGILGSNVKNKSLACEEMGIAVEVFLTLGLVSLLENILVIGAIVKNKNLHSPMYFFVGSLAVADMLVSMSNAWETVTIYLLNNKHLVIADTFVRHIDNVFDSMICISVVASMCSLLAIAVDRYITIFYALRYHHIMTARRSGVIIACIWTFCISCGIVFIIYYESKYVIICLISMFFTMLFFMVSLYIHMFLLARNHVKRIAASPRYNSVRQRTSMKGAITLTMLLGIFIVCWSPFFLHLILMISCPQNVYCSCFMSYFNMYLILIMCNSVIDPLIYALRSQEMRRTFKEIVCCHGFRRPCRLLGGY

mMC3R [7] = target: T3, mMC3R; assay: cAMP based β-galactosidase reporter assay; format: cell-based; details: Figure 1
hMC3R = details: cited from earlier work
hMC4R = details: cited from earlier work
mMC3R (Mus musculus) = mMC3R (Mus musculus) (UniProt P33033); assay: Schild analysis; details: cited from earlier work
mMC4R (Mus musculus) = mMC4R (Mus musculus) (UniProt P56450); assay: Schild analysis; details: cited from earlier work
mMC3R [8] = target: T3, mMC3R; format: cell-based
mMC5R [9] = target: T4, mMC5R; assay: cAMP based β-galactosidase reporter assay, agonist activity at mMC5R; format: cell-based; details: read-out: mMC5R Agonist EC50; HEK-293 cells, CRE/β-galactosidase reporter; mean ± SEM
mMC4R F176K = details: mutation F176K; cited from earlier work
[10] = system: mMC4R mutations (E92K, F253S); details: cited from earlier work
mMC4R [11] = target: T5, mMC4R (Mus musculus, UniProt P56450); assay: Schild analysis
T5 chain: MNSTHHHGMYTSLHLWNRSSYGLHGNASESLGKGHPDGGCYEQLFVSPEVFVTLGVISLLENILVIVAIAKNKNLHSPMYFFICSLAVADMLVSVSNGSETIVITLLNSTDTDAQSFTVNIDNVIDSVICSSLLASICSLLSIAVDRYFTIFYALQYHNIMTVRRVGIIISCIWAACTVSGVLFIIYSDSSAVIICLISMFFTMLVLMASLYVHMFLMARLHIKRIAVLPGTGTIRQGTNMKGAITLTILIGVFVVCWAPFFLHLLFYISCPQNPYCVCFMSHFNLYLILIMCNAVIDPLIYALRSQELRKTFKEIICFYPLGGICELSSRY

mMC3R [12] = target: T6, mMC3R (Mus musculus, UniProt P33033); assay: Schild analysis
T6 chain: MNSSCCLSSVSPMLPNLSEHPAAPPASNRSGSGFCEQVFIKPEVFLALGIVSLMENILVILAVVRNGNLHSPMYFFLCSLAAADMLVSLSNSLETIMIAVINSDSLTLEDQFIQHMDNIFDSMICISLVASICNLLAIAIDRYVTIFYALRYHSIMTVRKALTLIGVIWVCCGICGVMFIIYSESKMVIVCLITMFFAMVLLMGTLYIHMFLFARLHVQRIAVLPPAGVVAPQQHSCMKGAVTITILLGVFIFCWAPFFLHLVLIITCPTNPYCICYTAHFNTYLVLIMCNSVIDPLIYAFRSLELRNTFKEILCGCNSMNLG

[13] = Schild analysis, agonist MTII, mean ± SEM

Molecule: HS024
selectivity for the MC4R compared to the MC3R (MC4R): approximately 20 fold

fold more potent agonist at the mMC1R compared to 6 (mMC1R [1]): 5 fold
fold decreased antagonist potency at the mMC4R compared to 6 (mMC4R [2]): 8 fold
Molecule: C[C@@H]1NC(=O)[C@H](CC(N)=O)NC(=O)[C@H](Cc2ccccc2)NC(=O)[C@H](Cc2ccc(-c3ccccc3)cc2)NC(=O)[C@H](CCCNC(=N)N)NC(=O)[C@@H]2CCCN2C(=O)[C@H]2CCCN2C(=O)[C@H](Cc2ccccc2)NC1=O [Peptide 7, c[Pro-Arg-Bip-Phe-Asn-Ala-Phe-DPro]] (cyclo(R[Bip]FNAF[dP]P))

Molecule: hAGRP (87–132): C-terminal domain of human Agouti-related protein, stabilized by five disulfide bonds
EC50 (mMC1R [3]): > 100000 nM
mMC3R antagonist pA2 (mMC3R [4]): 8.9
mMC3R antagonist pA2 (mMC3R [4]; previously reported values): 8.9±0.2
mMC4R antagonist pA2 (mMC4R [5]): 9.4
mMC4R antagonist pA2 (mMC4R [5]; previously reported values): 9.4±1.0
Ki (mMC4R [5]): 0.4 nM
EC50 (mMC5R [6]): > 100000 nM

Molecule: C[C@@H]1NC(=O)[C@H](CN)NC(=O)[C@H](Cc2ccccc2)NC(=O)[C@H](Cc2ccccc2)NC(=O)[C@H](CCCNC(=N)N)NC(=O)[C@@H]2CCCN2C(=O)[C@H]2CCCN2C(=O)[C@H](Cc2ccccc2)NC1=O [Peptide 22, c[Pro-Arg-Phe-Phe-Dap-Ala-Phe-DPro]]
partial agonist activity at the mMC3R (mMC3R [7]): did not result in partial agonist activity

Molecule: Ac-c[Cys-Arg-Phe-Phe-Asn-Ala-Phe-Cys]-NH2 [AGRP(110-117)]
binding affinity at the hMC3R (hMC3R): no detectable binding
fold lower hMC4R binding affinity than AGRP(83-132) (hMC4R; compared to C-terminal AGRP(83-132)): approximately 36 fold
IC50 (hMC4R; read-out: IC50 binding affinity at the hMC4R): 127 nM

Molecule: hAGRP(87-132) 87-132 (from UniProt O00253)
Ki (mMC3R (Mus musculus)): 1.3 nM
Ki (mMC4R (Mus musculus)): 0.4 nM

Molecule: C[C@@H]1NC(=O)[C@H](CC(N)=O)NC(=O)[C@H](Cc2ccccc2)NC(=O)[C@H](Cc2ccccc2)NC(=O)[C@H](CCCNC(=N)N)NC(=O)[C@@H]2CCCN2C(=O)[C@H]2CCCN2C(=O)[C@H](Cc2ccccc2)NC1=O [Peptide 6, c[Pro-Arg-Phe-Phe-Asn-Ala-Phe-DPro]]
partial agonist activity at the mMC3R (mMC3R [7]): lack of agonist activity; also recorded: without any partial agonist activity

no activity at the mMC3R up to (concentration) (mMC3R [8]): > 100 µM
mMC3R antagonist pA2 (mMC3R [8]; [13]): >100,000
no activity at the mMC4R up to (concentration) (mMC4R [2]): > 100 µM
mMC4R antagonist pA2 (mMC4R [2]; [13]): >100,000
EC50 (mMC5R [9]): > 100000 nM
Molecule: C[C@@H]1NC(=O)[C@H](Cc2ccccc2)NC(=O)[C@H](C)NC(=O)[C@H](CC(N)=O)NC(=O)[C@H](Cc2ccccc2)NC(=O)[C@H](Cc2ccccc2)NC(=O)[C@H](CCCNC(=N)N)NC(=O)[C@H](C)NC(=O)[C@H](Cc2ccc(O)cc2)NC(=O)[C@@H]2CCCN2C(=O)[C@H]2CCCN2C(=O)[C@H](Cc2ccc(O)cc2)NC1=O [Peptide 4]

Molecule: miniAGRP (87-120): engineered minimized derivative of AGRP(87-132) with 4 disulfide bonds and the C-terminal 12 residues removed (CVRLHESCLGQQVPCCDPAATCYCRFFNAFCYCR)
EC50 (mMC1R [3]): > 100000 nM
EC50 (mMC5R [6]): > 100000 nM

fold more potent agonist at the mMC1R compared to 6 (mMC1R [1]): 10 fold
no activity at the mMC3R up to (concentration) (mMC3R [8]): > 100 µM
fold decreased antagonist potency at the mMC4R compared to 6 (mMC4R [2]): 8 fold
Molecule: C[C@@H]1NC(=O)[C@H](CC(N)=O)NC(=O)[C@H](Cc2ccc(-c3ccccc3)cc2)NC(=O)[C@H](Cc2ccccc2)NC(=O)[C@H](CCCNC(=N)N)NC(=O)[C@@H]2CCCN2C(=O)[C@H]2CCCN2C(=O)[C@H](Cc2ccccc2)NC1=O [Peptide 14, c[Pro-Arg-Phe-Bip-Asn-Ala-Phe-DPro]]

Molecule: TAYCRFFNAFCYAR-NH2 (disulfide 4-11) [hAGRP(107-120)]
mMC3R antagonist pA2 (mMC3R [4]): 6.1
mMC4R antagonist pA2 (mMC4R [5]): 6.6

Molecule: Tyr-c[Cys-Arg-Phe-Phe-Asn-Ala-Phe-Cys]-Tyr (YCRFFNAFCY; bridge 2-9; not fully specified (bridges)) [hAGRP (109-118)]
EC50 (mMC1R [3]): 5100 ± 3000 nM
Ki (mMC4R [5]): 160 nM
EC50 (mMC5R [6]): > 100000 nM

Ki (mMC4R [2]): 160 nM
EC50 (mMC5R [9]): > 100000 nM
Molecule: C[C@@H]1NC(=O)[C@H](CC(N)=O)NC(=O)[C@H](Cc2ccccc2)NC(=O)[C@H](Cc2ccccc2)NC(=O)[C@H](CCCNC(=N)N)NC(=O)[C@H]([C@@H](C)O)NC(=O)[C@H](Cc2ccc(O)cc2)NC(=O)[C@@H]2CCCN2C(=O)[C@H]2CCCN2C(=O)[C@H](Cc2ccc(O)cc2)NC(=O)[C@H]([C@@H](C)O)NC(=O)[C@H](Cc2ccccc2)NC1=O [Peptide 5] (cyclo(YTRFFNAFTY[dP]P))

Molecule: miniAGRP(87-120) 87-120 (from UniProt O00253)
Ki (mMC3R (Mus musculus)): 7.9 nM
Ki (mMC4R (Mus musculus)): 3.2 nM

Molecule: AGRP(83-132): C-terminal AGRP(83-132) peptide (SSRRCVRLHESCLGQQVPCCDPCATCYCRFFNAFCYCRKLGTAMNPCSRT; UniProt O00253 83-132, looked up, fragment)
loss of antagonist potency at mMC4R F176K (mMC4R F176K): complete loss of activity
binding to mMC4R mutations E92K, F253S [10]: unable to bind

fold decreased potency at the mMC1R compared to 6 (mMC1R [1]): 4 fold
no activity at the mMC3R up to (concentration) (mMC3R [8]): > 100 µM
fold decreased antagonist potency at the mMC4R compared to 6 (mMC4R [2]): 65 fold
Molecule: C[C@@H]1NC(=O)[C@H](CC(N)=O)NC(=O)[C@H](c2ccccc2)NC(=O)[C@H](Cc2ccccc2)NC(=O)[C@H](CCCNC(=N)N)NC(=O)[C@@H]2CCCN2C(=O)[C@H]2CCCN2C(=O)[C@H](Cc2ccccc2)NC1=O [Peptide 16, c[Pro-Arg-Phe-Phg-Asn-Ala-Phe-DPro]]

Ki (mMC4R [11]): 4 nM
Ki (mMC3R [12]): 200 nM
Molecule: cyclo(PRFFRAF[dP]) [peptide 26]

Ki (mMC4R [11]): 5 nM
Ki (mMC3R [12]): 100 nM
Molecule: cyclo(PRFFKAF[dP]) [peptide 25]

Ki (mMC4R [11]): 4 nM
Molecule: cyclo(PRFFGAF[dP]) [peptide 21]

Ki (mMC3R [12]): 1300 nM
B1: peptide 5 (peptide)
chain: cyclo(PYTRFFNAFTY[dP])
SMILES: C[C@@H]1NC(=O)[C@H](CC(N)=O)NC(=O)[C@H](Cc2ccccc2)NC(=O)[C@H](Cc2ccccc2)NC(=O)[C@H](CCCNC(=N)N)NC(=O)[C@H]([C@@H](C)O)NC(=O)[C@H](Cc2ccc(O)cc2)NC(=O)[C@@H]2CCCN2C(=O)[C@H]2CCCN2C(=O)[C@H](Cc2ccc(O)cc2)NC(=O)[C@H]([C@@H](C)O)NC(=O)[C@H](Cc2ccccc2)NC1=O
